Results taken from article PMC12606464, “Investigating NFE2L1 activators for targeted protein aggregate clearance: a follow-up study” (RSC Medicinal Chemistry, 2025).

System: proteasome subunit gene expression (PSMC4, PSMB7, PSMD12)
Assay: RT-qPCR of proteasome genes in NFE2L1/NFE2L2-knockdown HEK293 cells
Format: cell-based, human
Conditions: for NFE2L1 mRNA, mean diff between siRNA treatments, log2 / NFE2L2 mRNA, mean diff between siRNA treatments, log2 / PSMB7 mRNA, mean diff between siRNA treatments, log2 / PSMD12 mRNA, mean diff between siRNA treatments, log2: RUN89-treated
Description: Fig. 1 (A) Targeted library screening of RUN compounds using the 3×PSMA4-ARE-LUC dual reporter assay in HEK293 cells. Cells were exposed to RUN compounds (5 μM) for 16 hours, and luciferase activity was measured. Data are presented as the mean ± SD from three independent experiments (n = 3). Results are shown as a fold change in luminescence relative to DMSO-treated cells. Selected hit compounds are highlighted in distinct colours. (B) RUN-89 specifically activates the NFE2L1 pathway. The DDI2 knockout (KO) and parental (WT) HCT116 cells were transfected with the 3×PSMA4-ARE-LUC reporter and treated with 0.5 μM bortezomib (BTZ) and 5 μM RUN-89 for 16 hours. Data are presented as the Geomean ± GeoSD of three independent experiments (n = 3). Statistical analysis was performed on log2-transformed values using two-way repeated-measures ANOVA followed by Šídak's multiple comparison test. (C) RUN-89 selectively triggers downstream signaling events associated with NFE2L1 gene expression. HEK293 cells were transfected with lipid nanoparticles (LNPs) carrying siRNAs targeting NFE2L1 or NFE2L2. LNPs formulated with non-targeting siRNA served as a negative control. Following 24 hours of incubation, cells were treated with 7.5 μM RUN-89 or DMSO (vehicle) for an additional 16 hours. Expression of the proteasomal subunit gene PSMC4 was then quantified by RT-qPCR. Data are shown as the Geomean ± GeoSD from three independent biological replicates (n = 3). Log2-transformed data were analyzed using two-way repeated-measures ANOVA with the Geisser–Greenhouse correction, followed by Tukey's multiple comparison test with individual variances computed for each comparison. Additional results for NFE2L1, NFE2L2, PSMB7, and PSMD12 are presented in SI Fig. S10.
To further confirm that RUN-89 acts through NFE2L1-dependent signalling, we investigated the effect of selective knockdown of NFE2L1 and NFE2L2 on the induction of proteasomal genes. HEK293 cells (from ATCC CCL-247 (RRID:CVCL_0291)) were transfected with lipid nanoparticles (LNPs) carrying siRNAs targeting either NFE2L1 or NFE2L2, while non-targeting siRNA was used as a control. After treatment with RUN-89, transcript levels of several proteasome subunit genes were analyzed by RT-qPCR.
Figure S10: Effects of RUN-89 on NFE2L1- and NFE2L2-associated target genes following […]
HEK293 cells were transfected with lipid nanoparticles (LNPs) containing siRNAs against NFE2L1, NFE2L2, or a non-targeting control siRNA. After 24 hours, cells were treated with 7.5 μM RUN-89 or DMSO (vehicle) for an additional 16 h, and transcript levels of NFE2L1, NFE2L2, PSMB4, PSMB7, and PSMD12 were quantified by RT -qPCR. Data are presented as mean ± SD from three independent biological replicates (n = 3). Log₂ -transformed data were analyzed by two -way repeated-measures ANOVA with Geisser –Greenhouse correction, followed by Tukey’s multiple compa rison test with individual variances computed for each comparison.
2.16 Analysis of proteasome genes expression in NFE2L1/NFE2L2-
The corresponding HEK293 cells were seeded into 24-well culture plates (120,000 cells/well) and allowed to adhere overnight under standard culture conditions. On the following day, cells were transfected with siRNAs targeting NFE2L1, NFE2L2, or a non-targeting negative control siRNA (Table S2). Transfections were performed using a lipid nanoparticle (LNP) delivery system assembled as previously described,(7) with a final siRNA concentration of ~0.2 nmol per well. After 24 h of incubation, cells were treated with 7.5 µM […] or DMSO (vehicle control) for 16 h. Total RNA was then extracted, converted into cDNA, and analyzed by RT-qPCR using primers targeting proteasome genes (listed in Section 2.5, Quantitative RT-PCR, Table S1). Expression levels were normalized to RPLP0 mRNA. The […]

[1] = NFE2L1 siRNA vs. NFE2L1 + L2 siRNA
[2] = NFE2L2 siRNA vs. NFE2L1 + L2 siRNA
[3] = Non transfected vs. NFE2L1 + L2 siRNA
[4] = Non transfected vs. NFE2L1 siRNA
[5] = Non transfected vs. NFE2L2 siRNA
[6] = Non transfected vs. Scramble control siRNA
[7] = Scramble control siRNA vs. NFE2L1 + L2 siRNA
[8] = Scramble control siRNA vs. NFE2L1 siRNA
[9] = Scramble control siRNA vs. NFE2L2 siRNA

COc1ccc(/C=C2\CC(NC(=O)C3CCCC3)C/C(=C\c3ccc(OC)c(OC)c3)C2=O)cc1OC (centres unmarked) [RUN-89]
PSMC4 expression, mean log2, NFE2L1 + L2 siRNA (7.5 μM, 16 h, HEK293): 0.5367
PSMC4 expression, mean log2, NFE2L1 siRNA (7.5 μM, 16 h, HEK293): 0.5329
PSMC4 expression, mean log2, NFE2L2 siRNA (7.5 μM, 16 h, HEK293): 1.12
PSMC4 expression, mean log2, scramble control siRNA (7.5 μM, 16 h, HEK293): 1.335
PSMC4 expression, row mean of log2 values over all siRNA treatments (7.5 μM, 16 h, HEK293): 0.9981
PSMC4 expression, mean log2, non transfected (7.5 μM, 16 h, HEK293, no siRNA): 1.466
Induction of PSMC4 expression upon silencing of NFE2L1, but not NFE2L2 (HEK293, siRNA LNPs): markedly reduced
Mean diff, of log2-transformed values, DMSO vs. RUN89 (NFE2L1 + L2 siRNA): 0.1671
NFE2L1 mRNA, mean diff DMSO vs. RUN89, log2 (NFE2L1 + L2 siRNA): 0.4839
NFE2L1 mRNA, mean of log2-transformed values (NFE2L1 + L2 siRNA): -1.849
NFE2L2 mRNA, mean diff DMSO vs. RUN89, log2 (NFE2L1 + L2 siRNA): 0.1671
PSMB7 mRNA, mean diff DMSO vs. RUN89, log2 (NFE2L1 + L2 siRNA): -0.04295
PSMB7 mRNA, mean of log2-transformed values (NFE2L1 + L2 siRNA): -0.005215
PSMD12 mRNA, mean diff DMSO vs. RUN89, log2 (NFE2L1 + L2 siRNA): -1.247
PSMD12 mRNA, mean of log2-transformed values (NFE2L1 + L2 siRNA): 1.4
Mean diff, of log2-transformed values, DMSO vs. RUN89 (NFE2L1 siRNA): 0.3261
NFE2L1 mRNA, mean diff DMSO vs. RUN89, log2 (NFE2L1 siRNA): 0.5812
NFE2L1 mRNA, mean of log2-transformed values (NFE2L1 siRNA): -2.192
NFE2L2 mRNA, mean diff DMSO vs. RUN89, log2 (NFE2L1 siRNA): 0.3261
PSMB7 mRNA, mean diff DMSO vs. RUN89, log2 (NFE2L1 siRNA): 0.02314
PSMB7 mRNA, mean of log2-transformed values (NFE2L1 siRNA): -0.07162
PSMD12 mRNA, mean diff DMSO vs. RUN89, log2 (NFE2L1 siRNA): -1.239
PSMD12 mRNA, mean of log2-transformed values (NFE2L1 siRNA): 1.413
Mean diff, of log2-transformed values, DMSO vs. RUN89 (NFE2L2 siRNA): 0.07457
NFE2L1 mRNA, mean diff DMSO vs. RUN89, log2 (NFE2L2 siRNA): -0.06055
NFE2L1 mRNA, mean of log2-transformed values (NFE2L2 siRNA): -0.3257
NFE2L2 mRNA, mean diff DMSO vs. RUN89, log2 (NFE2L2 siRNA): 0.07457
PSMB7 mRNA, mean diff DMSO vs. RUN89, log2 (NFE2L2 siRNA): -0.4898
PSMB7 mRNA, mean of log2-transformed values (NFE2L2 siRNA): 0.4898
PSMD12 mRNA, mean diff DMSO vs. RUN89, log2 (NFE2L2 siRNA): -1.678
PSMD12 mRNA, mean of log2-transformed values (NFE2L2 siRNA): 1.979
Mean diff, of log2-transformed values, DMSO vs. RUN89 (Non transfected): -0.3265
NFE2L2 mRNA, mean diff DMSO vs. RUN89, log2 (Non transfected): -0.3265
PSMB7 mRNA, mean diff DMSO vs. RUN89, log2 (Non transfected): -0.7476
PSMB7 mRNA, mean of log2-transformed values (Non transfected): 0.7599
PSMD12 mRNA, mean diff DMSO vs. RUN89, log2 (Non transfected): -1.909
PSMD12 mRNA, mean of log2-transformed values (Non transfected): 2.076
NFE2L1 mRNA, mean diff between siRNA treatments, log2 [1]: 0.3437
NFE2L2 mRNA, mean diff between siRNA treatments, log2 [1]: 2.749
PSMB7 mRNA, mean diff between siRNA treatments, log2 [1]: -0.0664
PSMD12 mRNA, mean diff between siRNA treatments, log2 [1]: 0.01218
NFE2L1 mRNA, mean diff between siRNA treatments, log2 (NFE2L1 siRNA vs. NFE2L2 siRNA): 1.867
NFE2L2 mRNA, mean diff between siRNA treatments, log2 (NFE2L1 siRNA vs. NFE2L2 siRNA): 2.85
PSMB7 mRNA, mean diff between siRNA treatments, log2 (NFE2L1 siRNA vs. NFE2L2 siRNA): -0.5614
PSMD12 mRNA, mean diff between siRNA treatments, log2 (NFE2L1 siRNA vs. NFE2L2 siRNA): -0.5664
NFE2L1 mRNA, mean diff between siRNA treatments, log2 [2]: -1.523
NFE2L2 mRNA, mean diff between siRNA treatments, log2 [2]: -0.1013
PSMB7 mRNA, mean diff between siRNA treatments, log2 [2]: 0.495
PSMD12 mRNA, mean diff between siRNA treatments, log2 [2]: 0.5786
NFE2L1 mRNA, mean diff between siRNA treatments, log2 [3]: -2.639
NFE2L2 mRNA, mean diff between siRNA treatments, log2 [3]: 3.437
PSMB7 mRNA, mean diff between siRNA treatments, log2 [3]: 0.7651
PSMD12 mRNA, mean diff between siRNA treatments, log2 [3]: 0.6755
NFE2L1 mRNA, mean diff between siRNA treatments, log2 [4]: -2.982
NFE2L2 mRNA, mean diff between siRNA treatments, log2 [4]: 0.6883
PSMB7 mRNA, mean diff between siRNA treatments, log2 [4]: 0.8315
PSMD12 mRNA, mean diff between siRNA treatments, log2 [4]: 0.6633
NFE2L1 mRNA, mean diff between siRNA treatments, log2 [5]: -1.115
NFE2L2 mRNA, mean diff between siRNA treatments, log2 [5]: 3.539
PSMB7 mRNA, mean diff between siRNA treatments, log2 [5]: 0.27
PSMD12 mRNA, mean diff between siRNA treatments, log2 [5]: 0.09696
NFE2L2 mRNA, mean diff between siRNA treatments, log2 [6]: -0.01225
PSMB7 mRNA, mean diff between siRNA treatments, log2 [6]: 0.1431
PSMD12 mRNA, mean diff between siRNA treatments, log2 [6]: -0.01734
NFE2L1 mRNA, mean diff between siRNA treatments, log2 [7]: -2.465
NFE2L2 mRNA, mean diff between siRNA treatments, log2 [7]: 3.45
PSMB7 mRNA, mean diff between siRNA treatments, log2 [7]: 0.622
PSMD12 mRNA, mean diff between siRNA treatments, log2 [7]: 0.6929
NFE2L1 mRNA, mean diff between siRNA treatments, log2 [8]: -2.808
NFE2L2 mRNA, mean diff between siRNA treatments, log2 [8]: 0.7005
PSMB7 mRNA, mean diff between siRNA treatments, log2 [8]: 0.6884
PSMD12 mRNA, mean diff between siRNA treatments, log2 [8]: 0.6807
NFE2L1 mRNA, mean diff between siRNA treatments, log2 [9]: -0.9417
NFE2L2 mRNA, mean diff between siRNA treatments, log2 [9]: 3.551
PSMB7 mRNA, mean diff between siRNA treatments, log2 [9]: 0.127
PSMD12 mRNA, mean diff between siRNA treatments, log2 [9]: 0.1143
Mean diff, of log2-transformed values, DMSO vs. RUN89 (Scramble control siRNA): -0.3474
NFE2L1 mRNA, mean diff DMSO vs. RUN89, log2 (Scramble control siRNA): 0.6041
NFE2L1 mRNA, mean of log2-transformed values (Scramble control siRNA): 0.616
NFE2L2 mRNA, mean diff DMSO vs. RUN89, log2 (Scramble control siRNA): -0.3474
PSMB7 mRNA, mean diff DMSO vs. RUN89, log2 (Scramble control siRNA): -0.6138
PSMB7 mRNA, mean of log2-transformed values (Scramble control siRNA): 0.6168
PSMD12 mRNA, mean diff DMSO vs. RUN89, log2 (Scramble control siRNA): -2.092
PSMD12 mRNA, mean of log2-transformed values (Scramble control siRNA): 2.093
NFE2L1 mRNA, mean of log2-transformed values (row mean) (mean over all siRNA treatments): -0.5922
NFE2L2 mRNA, mean of log2-transformed values (row mean) (mean over all siRNA treatments): -1.194
PSMB7 mRNA, mean of log2-transformed values (row mean) (mean over all siRNA treatments): 0.3579
PSMD12 mRNA, mean of log2-transformed values (row mean) (mean over all siRNA treatments): 1.792
NFE2L1 mRNA, difference between means (DMSO - RUN89), log2 (over all siRNA treatments): -0.4084
NFE2L2 mRNA, difference between means (DMSO - RUN89), log2 (over all siRNA treatments): -0.02122
PSMB7 mRNA, difference between means (DMSO - RUN89), log2 (over all siRNA treatments): -0.3742
PSMD12 mRNA, difference between means (DMSO - RUN89), log2 (over all siRNA treatments): -1.633
